Where two headings read alike, the source gives them in different places. Values belong to the molecule of their own block, whether it stands above or below them.
Legend:
Assay in all cases: Synergistic Growth Inhibition Assay (MIC and FIC index, 96-well, resazurin)
Assay type in all cases: cell-based
Alternaria solani = conditions: for MIC (A): Compound A alone; for MIC: Alternaria solani, read-out: MIC (B)
Description: (§1) In some embodiments, the synergistic action between the pesticidal active ingredient, and the at least one C6-C10 (or alternatively C11 or C12) saturated or unsaturated aliphatic acid components of the pesticidal compositions according to embodiments of the present disclosure was tested using a Synergistic Growth Inhibition Assay, which is derived from and related to a checkerboard assay as is known in the art for testing of combinations of antimicrobial agents. In the Synergistic Growth Inhibition Assay used in accordance with some embodiments of the present disclosure, multiple dilutions of combinations of pesticidal active ingredient and at least one C6-C10 saturated or unsaturated aliphatic acid agents are tested in individual cells for inhibitory activity against a target pest or pathogenic organism. In one such embodiment, the combinations of pesticidal active ingredient and C6-C10 (or alternatively C11 or C12) saturated or unsaturated aliphatic acid agents may preferably be tested in decreasing concentrations. In a further such embodiment, the combinations of pesticidal active ingredient and C6-C10 (or alternatively C11 or C12) saturated or unsaturated aliphatic acid agents may be tested in increasing concentrations. These multiple combinations of the pesticidal active ingredient and at least one C6-C10 (or alternatively C11 or C12) saturated or unsaturated aliphatic acid agents may be prepared in 96-well microtiter plates. In one such embodiment, the Synergistic Growth Inhibition Assay then comprises rows which each contain progressively decreasing concentrations of the pesticidal active ingredient and one or more C6-C10 (or alternatively C11 or C12) saturated or unsaturated aliphatic acid agents to test for the MIC of the agents in combination at which growth of the target pest or pathogen is inhibited. Thus, each well of the microtiter plate is a unique combination of the two agents, at which inhibitory efficacy of the combination against the target pest or pathogen can be determined.
(§2) In one embodiment according to the present disclosure, for each row of microtiter cells in the Synergistic Growth Inhibition Assay, the FIC index is calculated from the lowest concentration of the pesticidal active ingredient and one or more C6-C10 saturated or unsaturated aliphatic acid agents necessary to inhibit growth of a target pest or pathogen. The FIC of each component is derived by dividing the concentration of the agent present in that well of the microtiter plate by the minimal inhibitory concentration (MIC) needed of that agent alone to inhibit growth of the target pest or pathogen. The FIC index is then the sum of these values for both agents in that well of the microtiter plate. […] Fractional inhibitory concentration indices may then used as measure of synergy. […] When the FIC index is equal to 1, the combination is additive.
(§3) Then, serial dilutions of these initial compositions in successive wells in the row of the microtiter plate were used to assay the pesticidal composition under the same conditions to determine the concentration of the composition combining the two agents corresponding to the microtiter well in which growth inhibition of the target pest or organism ceases.
A culture of the representative fungal pathogen, namely Fusarium oxysporum, Botrytis cinerea, or Sclerotinia sclerotiorum, for example, is grown to exponential phase in potato dextrose broth (PDB).

Botrytis cinerea = conditions: for MIC: Botrytis cinerea, 48 h
Description: as §1, §2, §3
(§4) Similarly to as described above, Resazurin was used as an indicator of growth or inhibition of growth of Botrytis cinerea in the exemplary Synergistic Growth Inhibition Assay. In addition to the color change of the resazurin, an optical or visual examination of the microtiter well may also be made to additionally determine the presence of growth or inhibition of growth of the Botrytis cinerea.

Fusarium oxysporum = conditions: for MIC: Fusarium oxysporum
Description: as §1, §2, §3
Resazurin dye (also known as Alamar blue dye) was used as an indicator to determine the presence of growth or inhibition of growth of Fusarium oxysporum in the wells of the 96 well microtiter plates used in the exemplary Synergistic Growth Inhibition Assay. In addition to the color change of the resazurin dye in the presence of growth of the Fusarium oxysporum, an optical or visual examination of the microtiter well may also be made to additionally determine the presence of growth or inhibition of growth of the Fusarium oxysporum.

Sclerotinia sclerotiorum = conditions: for MIC: Sclerotinia sclerotiorum
Description: as §1, §2, §3
as §4, with “Sclerotinia sclerotiorum” for “Botrytis cinerea”, “Sclerotinia sclerotiorum.” for “Botrytis cinerea.”

[1] = Compound B alone, 7 days incubation
[2] = Table 51, Compound B alone, 48 hours incubation, read-out: MIC (B)
[3] = Table 59, Compound B alone, 48 hours incubation, read-out: MIC (B)
[4] = 48 h, Table 15B, Compound A alone, incubation 48 hours, read-out: MIC (A)
[5] = Table 20B, Compound A alone, incubation 7 days, read-out: MIC (A)
[6] = Table 23, Compound A alone, incubation 48 hours, read-out: MIC (A)
[7] = Table 56, Compound B alone, 48 hours incubation, read-out: MIC (B)
[8] = Table 19, Compound A alone, incubation 7 days, read-out: MIC (A)

SMILES: CO/C=C(/C(=O)OC)c1ccccc1COc1cccc(C(F)(F)F)n1 [Picoxystrobin, reference compound]
MIC (A) (Alternaria solani; 7 days incubation): 500 µg/mL
MIC (A) (Alternaria solani; Table 60, 7 days incubation): 500 µg/mL
MIC (A) (Botrytis cinerea; Table 51, Compound A alone, 48 hours incubation): 250 µg/mL
MIC (A) (Botrytis cinerea; Table 52, Compound A alone, 48 hours incubation): 250 µg/mL

MIC (Alternaria solani; [1]): 62.5 µg/mL
SMILES: CCCCCCC(C)CC(=O)O (stereo not drawn) [3-Methylnonanoic acid]

MIC (Alternaria solani; [1]): 250 µg/mL
MIC (Botrytis cinerea; [2]): 125 µg/mL
MIC (Botrytis cinerea; [3]): 125 µg/mL
SMILES: CCCC(C)CC(=O)O (stereo not drawn) [3-Methylhexanoic acid]

MIC (Alternaria solani; [1]): 2500 µg/mL
MIC (Botrytis cinerea; [2]): 1250 µg/mL
SMILES: CCCCC(O)C(=O)O (stereo not drawn) [2-Hydroxyhexanoic acid]

SMILES: CO/C=C(/C(=O)OC)c1ccccc1Oc1cc(Oc2ccccc2C#N)ncn1 [Azoxystrobin, reference compound]
MIC (A) (Fusarium oxysporum; Table 11, Compound A alone, incubation 48 hours): 75 µg/mL
MIC (A) (Fusarium oxysporum; Table 15B, Compound A alone, incubation 48 hours): 150 µg/mL
MIC (A) (Fusarium oxysporum; Table 28, Compound A alone, 48 hours incubation): 150 µg/mL
MIC (A) (Sclerotinia sclerotiorum; Table 17, Compound A alone, incubation 7 days): 150 µg/mL
MIC (A) (Sclerotinia sclerotiorum; Table 20B, Compound A alone, incubation 7 days): 75 µg/mL
MIC (A) (Sclerotinia sclerotiorum; Table 35, Compound A alone, 7 days incubation): 150 µg/mL
MIC (A) (Botrytis cinerea; Table 23, Compound A alone, incubation 48 hours): 75 µg/mL
MIC (A) (Botrytis cinerea; Table 45, Compound A alone, 48 hours incubation): 75 µg/mL

SMILES: O=C(O)CCCCCCCCCCCO [12-Hydroxydodecanoic acid]
MIC (Alternaria solani): 100 µg/mL
MIC (Botrytis cinerea; read-out: MIC (B), Table 51, Compound B alone, 48 hours incubation): 100 µg/mL
MIC (Botrytis cinerea; read-out: MIC (B), Table 55, Compound B alone, 48 hours incubation): 100 µg/mL
MIC (Botrytis cinerea; read-out: MIC (B), Table 56, Compound B alone, 48 hours incubation): 100 µg/mL
MIC (Botrytis cinerea; read-out: MIC (B), Table 59, Compound B alone, 48 hours incubation): 50 µg/mL

SMILES: COC(=O)N(OC)c1ccccc1COc1ccn(-c2ccc(Cl)cc2)n1 [Pyraclostrobin, pyraclostrobin, reference compound]
MIC (Fusarium oxysporum; 24 h, Table 1, Compound A alone, 24 hour incubation, read-out: MIC(A)): 15.4 µg/mL
MIC (Fusarium oxysporum; 48 h, Table 10, Compound A alone, incubation 48 hours, read-out: MIC (A)): 15 µg/mL
MIC (Fusarium oxysporum; [4]): 15 µg/mL
MIC (Fusarium oxysporum; 48 h, Table 27, Compound A alone, 48 hours incubation, read-out: MIC (A)): 15 µg/mL
MIC (Sclerotinia sclerotiorum; Table 16, Compound A alone, incubation 7 days, read-out: MIC (A)): 7.5 µg/mL
MIC (Sclerotinia sclerotiorum; [5]): 3.75 µg/mL
MIC (Sclerotinia sclerotiorum; Table 33, Compound A alone, 7 days incubation, read-out: MIC (A)): 7.5 µg/mL
MIC (Sclerotinia sclerotiorum; Table 34, Compound A alone, 7 days incubation, read-out: MIC (A)): 3.75 µg/mL
MIC (Botrytis cinerea; Table 21, Compound A alone, incubation 48 hours, read-out: MIC (A)): 1.9 µg/mL
MIC (Botrytis cinerea; [6]): 3.75 µg/mL
MIC (Botrytis cinerea; Table 43, Compound A alone, 48 hours incubation, read-out: MIC (A)): 1.88 µg/mL
MIC (Botrytis cinerea; Table 44, Compound A alone, 48 hours incubation, read-out: MIC (A)): 1.88 µg/mL

MIC (Fusarium oxysporum; 24 h, Table 1, Compound B alone, 24 hour incubation, read-out: MIC(B)): 312 µg/mL
MIC (Fusarium oxysporum; 24 h, Table 2, Compound B alone, 24 hour incubation, read-out: MIC (B)): 312 µg/mL
MIC (Sclerotinia sclerotiorum; Table 33, Compound B alone, 7 days incubation, read-out: MIC (B)): 156 µg/mL
MIC (Botrytis cinerea; Table 43, Compound B alone, 48 hours incubation, read-out: MIC (B)): 78.1 µg/mL
MIC (Botrytis cinerea; Table 44, Compound B alone, 48 hours incubation, read-out: MIC (B)): 39.1 µg/mL
MIC (Botrytis cinerea; Table 45, Compound B alone, 48 hours incubation, read-out: MIC (B)): 156 µg/mL
MIC (Botrytis cinerea; Table 52, Compound B alone, 48 hours incubation, read-out: MIC(B)): 156 µg/mL
MIC (Botrytis cinerea; [7]): 312 µg/mL
SMILES: CCC/C=C/C(=O)O [Trans-2-hexenoic acid, trans-2-hexenoic acid]

SMILES: CC1COC(Cn2cncn2)(c2ccc(Oc3ccc(Cl)cc3)cc2Cl)O1 (stereo not drawn) [Difenoconazole, reference compound]
MIC (Fusarium oxysporum; 48 h, Table 14, Compound A alone, incubation 48 hours, read-out: MIC (A)): 51 µg/mL
MIC (Fusarium oxysporum; [4]): 51 µg/mL
MIC (Fusarium oxysporum; 48 h, Table 30, Compound A alone, 48 hours incubation, read-out: MIC (A)): 51 µg/mL
MIC (Sclerotinia sclerotiorum; Table 20A, Compound A alone, incubation 7 days, read-out: MIC (A)): 12.8 µg/mL
MIC (Sclerotinia sclerotiorum; [5]): 25.5 µg/mL
MIC (Sclerotinia sclerotiorum; Table 38, Compound A alone, 7 days incubation, read-out: MIC (A)): 25.5 µg/mL
MIC (Botrytis cinerea; Table 24, Compound A alone, 48 hours incubation, read-out: MIC (A)): 51 µg/mL

MIC (Fusarium oxysporum; 48 h, Table 10, Compound B alone, incubation 48 hours, read-out: MIC (B)): 250 µg/mL
MIC (Fusarium oxysporum; 48 h, Table 12, Compound B alone, incubation 48 hours, read-out: MIC (B)): 250 µg/mL
MIC (Fusarium oxysporum; 48 h, Table 13, Compound B alone, incubation 48 hours, read-out: MIC (B)): 250 µg/mL
MIC (Fusarium oxysporum; 48 h, Table 15B, Compound B alone, incubation 48 hours, read-out: MIC (B)): 250 µg/mL
MIC (Sclerotinia sclerotiorum; Table 16, Compound B alone, incubation 7 days, read-out: MIC (B)): 125 µg/mL
MIC (Sclerotinia sclerotiorum; Table 20B, Compound B alone, incubation 7 days, read-out: MIC (B)): 62.5 µg/mL
MIC (Botrytis cinerea; [2]): 62.5 µg/mL
MIC (Botrytis cinerea; [7]): 125 µg/mL
MIC (Botrytis cinerea; [3]): 125 µg/mL
SMILES: CCCCCCCC(O)CC(=O)O (stereo not drawn) [3-Hydroxydecanoic acid, 3-hydroxydecanoic acid]

SMILES: Fc1ccc([C@]2(Cn3cncn3)O[C@H]2c2ccccc2Cl)cc1 (racemic) [Epoxiconazole, reference compound]
MIC (Fusarium oxysporum; 48 h, Table 31, Compound A alone, 48 hours incubation, read-out: MIC (A)): 30 µg/mL
MIC (Sclerotinia sclerotiorum; [8]): 30 µg/mL
MIC (Sclerotinia sclerotiorum; [5]): 30 µg/mL
MIC (Sclerotinia sclerotiorum; Table 40, Compound A alone, 7 days incubation, read-out: MIC (A)): 30 µg/mL
MIC (Botrytis cinerea; [6]): 30 µg/mL
MIC (Botrytis cinerea; Table 49, Compound A alone, 48 hours incubation, read-out: MIC (A)): 30 µg/mL

SMILES: CC(C)(C)C(O)(CCc1ccc(Cl)cc1)Cn1cncn1 (stereo not drawn) [Tebuconazole, reference compound]
MIC (Fusarium oxysporum; 48 h, Table 15A, Compound A alone, incubation 48 hours, read-out: MIC (A)): 255 µg/mL
MIC (Fusarium oxysporum; [4]): 225 µg/mL
MIC (Fusarium oxysporum; 48 h, Table 32, Compound A alone, 48 hours incubation, read-out: MIC (A)): 225 µg/mL
MIC (Sclerotinia sclerotiorum; [8]): 225 µg/mL
MIC (Sclerotinia sclerotiorum; [5]): 56.2 µg/mL
MIC (Sclerotinia sclerotiorum; Table 41, Compound A alone, 7 days incubation, read-out: MIC (A)): 112 µg/mL
MIC (Sclerotinia sclerotiorum; Table 42, Compound A alone, incubation 7 days, read-out: MIC (A)): 112 µg/mL
MIC (Botrytis cinerea; [6]): 112 µg/mL
MIC (Botrytis cinerea; Table 25, Compound A alone, 48 hours incubation, read-out: MIC (A)): 112 µg/mL
MIC (Botrytis cinerea; Table 50, Compound A alone, 48 hours incubation, read-out: MIC (A)): 112 µg/mL

SMILES: Cc1cc(C2CC2)nc(Nc2ccccc2)n1 [Cyprodinil, reference compound]
MIC (Botrytis cinerea; [6]): 4.5 µg/mL
MIC (Botrytis cinerea; Table 26, Compound A alone, 48 hours incubation, read-out: MIC (A)): 4.5 µg/mL
MIC (Botrytis cinerea; Table 47, Compound A alone, 48 hours incubation, read-out: MIC (A)): 4.5 µg/mL

Source: patent US11839212B2, “Synergistic pesticidal compositions and methods for delivery of insecticidal active ingredients” (0903608 B.C. Ltd., priority 2018, dated 2023)
